Values joined by “and” are separate entries in the source; they are usually repeats but may differ in a detail not shown here. Equal values may be shown once. Toxic doses and inconclusive results are not listed.

The assay deals with P388 leukemia ip, CD2F1 mice, survival T/C. Put plainly: NCI In Vivo Anticancer Drug Screen. Data for tumor model P388 Leukemia (intraperitoneal) in CD2F1 (CDF1) mice. Particulars: endpoint: median survival time, higher = longer survival. An outline of the steps:
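Mice carrying the transplanted tumor received test compound or vehicle. Survival was recorded in each group, and the value is the treated-group measurement divided by that of the vehicle-treated control group.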

[1] abbreviates: dose: 50.0 mg/kg/injection, schedule: Q01DX009 (ip), vehicle: saline.
Setting [2] is: dose: 100.0 mg/kg/injection, schedule: Q01DX009 (ip), vehicle: saline.
Where [3] appears, read: dose: 50.0 mg/kg/injection, schedule: Q01DX005 (ip), vehicle: saline with Tween-80.
Setting [4] is: dose: 100.0 mg/kg/injection, schedule: Q01DX005 (ip), vehicle: saline with Tween-80.
Setting [5] is: dose: 200.0 mg/kg/injection, schedule: Q01DX005 (ip), vehicle: saline with Tween-80.
The mark [6] stands for this setting: dose: 60.0 mg/kg/injection, schedule: Q01DX005 (ip), vehicle: saline with Tween-80.
Where [7] appears, read: dose: 120.0 mg/kg/injection, schedule: Q01DX005 (ip), vehicle: saline with Tween-80.

Consider `CN(C)C(=O)N1OC2CCC1CC2`, for which the T/C by setting is: (dose: 60.0 mg/kg/injection, schedule: Q01DX005 (ip), vehicle: saline) 100 % of control; (dose: 120.0 mg/kg/injection, schedule: Q01DX005 (ip), vehicle: saline) 100 % of control; (dose: 240.0 mg/kg/injection, schedule: Q01DX005 (ip), vehicle: saline) 100 % of control.
`CCC[N+]1([O-])CCOCC1`: the T/C by setting is: under setting [1], 102 % of control; under setting [2], 100 % of control; (dose: 200.0 mg/kg/injection, schedule: Q01DX009 (ip), vehicle: saline) 94 % of control.
Take `COc1cccc2c1C(=O)c1c(O)c3c(c(O)c1C2=O)C[C@@](O)(C(=O)CSC(=O)c1ccccc1)C[C@@H]3OC1CC(N)C(O)C(C)O1` (stereo partly specified): the T/C runs as follows: (dose: 25.0 mg/kg/injection, schedule: Q01DX001 (ip), vehicle: water) 123 % of control; (dose: 50.0 mg/kg/injection, schedule: Q01DX001 (ip), vehicle: water) 109 % of control.
For the molecule `O=C1c2ccccc2C(=O)N1c1ccccc1`, the T/C is 99 % of control (dose: 100.0 mg/kg/injection, schedule: Q01DX001 (ip), vehicle: Klucel (hydroxypropylcellulose) (HPC)); 100 % of control (dose: 200.0 mg/kg/injection, schedule: Q01DX001 (ip), vehicle: Klucel (hydroxypropylcellulose) (HPC)); 100 % of control (dose: 400.0 mg/kg/injection, schedule: Q01DX001 (ip), vehicle: Klucel (hydroxypropylcellulose) (HPC)).
On to `O=S(=O)(O)c1ccc2cc3nn(-c4ccc(/C=C/c5ccc(-n6nc7cc8ccc(S(=O)(=O)O)cc8cc7n6)cc5S(=O)(=O)O)c(S(=O)(=O)O)c4)nc3cc2c1`, for which the T/C runs as follows: under setting [1], 97 % of control; under setting [2], 97 % of control.
With `Oc1ccc(/C=N/NC(=S)Nc2ccccc2)nc1`, the T/C was 114 % of control (dose: 265.0 mg/kg/injection, schedule: Q04DX003 (ip), vehicle: Klucel (hydroxypropylcellulose) (HPC)); 123 % of control (dose: 400.0 mg/kg/injection, schedule: Q04DX003 (ip), vehicle: Klucel (hydroxypropylcellulose) (HPC)); 117 % of control (dose: 600.0 mg/kg/injection, schedule: Q04DX003 (ip), vehicle: Klucel (hydroxypropylcellulose) (HPC)).
On to `Cc1cnc2cc(Cl)ccc2c1NCCNCCO`, for which the T/C by setting is: (dose: 50.0 mg/kg/injection, schedule: Q01DX005 (ip), vehicle: saline) 119 % of control; (dose: 100.0 mg/kg/injection, schedule: Q01DX005 (ip), vehicle: saline) 119 % of control.
In the case of `Cc1ccc2c(c1)C1(C)OC(C=CC1(C)O)O2` (stereo unspecified), the T/C reads like this: under setting [3], 101 % of control; under setting [4], 106 % of control; under setting [5], 106 % of control.
Take `COc1cc(O)c2c(=O)c3c(O)c(OC4OC(COC5OC(C)C(O)C(O)C5O)C(O)C(O)C4O)ccc3oc2c1` (stereo unspecified): the T/C is, setting by setting: (dose: 1.5 mg/kg/injection, schedule: Q01DX009 (ip), vehicle: saline) 107 % of control; (dose: 3.0 mg/kg/injection, schedule: Q01DX009 (ip), vehicle: saline) 103 % of control; (dose: 6.0 mg/kg/injection, schedule: Q01DX009 (ip), vehicle: saline) 100 % of control; (dose: 12.0 mg/kg/injection, schedule: Q01DX009 (ip), vehicle: saline) 99 % of control.
For `O=C(Nc1cccc2c1CCCC2)c1cc2ccccc2cc1O`, the T/C reads like this: under setting [3], 92 % of control; under setting [4], 91 % of control; under setting [5], 91 % of control.
As to `Cn1c(-c2ccc3c(c2)OCO3)cc(=O)c2ccccc21`, the T/C was 97 % of control (dose: 30.0 mg/kg/injection, schedule: Q01DX005 (ip), vehicle: saline with Tween-80); 92 % of control under setting [6]; 92 % of control under setting [7].
In the case of `COC(=O)C1=C(O)/C(=C\c2ccccc2)NC1=O`, the T/C (dose: 50.0 mg/kg/injection, schedule: Q01DX005 (ip), vehicle: Klucel (hydroxypropylcellulose) (HPC)) was 101 % of control; the T/C (dose: 100.0 mg/kg/injection, schedule: Q01DX005 (ip), vehicle: Klucel (hydroxypropylcellulose) (HPC)) is 108 % of control; the T/C (dose: 200.0 mg/kg/injection, schedule: Q01DX005 (ip), vehicle: Klucel (hydroxypropylcellulose) (HPC)) is 104 % of control.
Consider `O=P(c1ccccc1)(c1ccccc1)c1ccccc1.[Cl][Sn]([c]1ccccc1)([c]1ccccc1)[c]1ccccc1`, for which the T/C was 100 % of control (dose: 100.0 mg/kg/injection, schedule: Q04DX003 (ip), vehicle: saline); 106 % of control (dose: 200.0 mg/kg/injection, schedule: Q04DX003 (ip), vehicle: saline); 118 % of control (dose: 400.0 mg/kg/injection, schedule: Q04DX003 (ip), vehicle: saline).
For `COc1cccc2c1C(=O)c1c(O)c3c(c(O)c1C2=O)C[C@@](O)(C(=O)COC(=O)Cc1cccc2ccccc12)C[C@@H]3OC1CC(N)C(O)C(C)O1` (stereo partly specified), the T/C runs as follows: (dose: 0.5 mg/kg/injection, schedule: Q01DX009 (ip), vehicle: other) 164 % of control; (dose: 0.5 mg/kg/injection, schedule: Q01DX009 (ip), vehicle: saline with Tween-80) 169 % of control; (dose: 0.5 mg/kg/injection, schedule: Q01DX009 (ip), vehicle: saline) 107 % of control; (dose: 0.78 mg/kg/injection, schedule: Q01DX009 (ip), vehicle: other) 157 % of control; (dose: 1.0 mg/kg/injection, schedule: Q01DX009 (ip), vehicle: other) 156 % of control; (dose: 1.0 mg/kg/injection, schedule: Q01DX009 (ip), vehicle: saline with Tween-80) 183 % of control. Further, the T/C runs as follows: (dose: 1.0 mg/kg/injection, schedule: Q01DX009 (ip), vehicle: saline) 121 % of control; (dose: 1.56 mg/kg/injection, schedule: Q01DX009 (ip), vehicle: other) 190 % of control; (dose: 2.0 mg/kg/injection, schedule: Q01DX009 (ip), vehicle: other) 170 % of control; (dose: 2.0 mg/kg/injection, schedule: Q01DX009 (ip), vehicle: saline with Tween-80) 231 % of control; (dose: 2.0 mg/kg/injection, schedule: Q01DX009 (ip), vehicle: saline) 124 % of control; (dose: 3.13 mg/kg/injection, schedule: Q01DX009 (ip), vehicle: other) 245 % of control. Also, the T/C by setting is: (dose: 4.0 mg/kg/injection, schedule: Q01DX009 (ip), vehicle: other) 113 % of control; (dose: 4.0 mg/kg/injection, schedule: Q01DX009 (ip), vehicle: saline with Tween-80) 161 % of control and 277 % of control; (dose: 4.0 mg/kg/injection, schedule: Q01DX009 (ip), vehicle: saline) 122 % of control; (dose: 8.0 mg/kg/injection, schedule: Q01DX009 (ip), vehicle: saline with Tween-80) 100 % of control; (dose: 16.0 mg/kg/injection, schedule: Q01DX009 (ip), vehicle: saline with Tween-80) 99 % of control.
`CNC(=O)NC1NC(=O)N(C)C1=O` (stereo unspecified): the T/C is 100 % of control (dose: 50.0 mg/kg/injection, schedule: Q01DX009 (ip), vehicle: saline with Tween-80); 99 % of control (dose: 100.0 mg/kg/injection, schedule: Q01DX009 (ip), vehicle: saline with Tween-80); 100 % of control (dose: 200.0 mg/kg/injection, schedule: Q01DX009 (ip), vehicle: saline with Tween-80).
As for `Cc1ccc2nc(N(C)C)nc-2c2[nH]c(=O)[nH]c12`, the T/C was 110 % of control (dose: 8.25 mg/kg/injection, schedule: Q01DX005 (ip), vehicle: saline); 110 % of control (dose: 16.5 mg/kg/injection, schedule: Q01DX005 (ip), vehicle: saline); 107 % of control (dose: 33.0 mg/kg/injection, schedule: Q01DX005 (ip), vehicle: saline); 102 % of control (dose: 66.0 mg/kg/injection, schedule: Q01DX005 (ip), vehicle: saline).
Regarding `CC(C)CC(=O)C1C(c2ccccc2)CC(=O)C(C(C)C)C1c1ccccc1` (stereo unspecified), the T/C under setting [3] was 92 % of control and the T/C under setting [4] is 92 % of control.
Consider `O=C(O)C12C3CCC(O3)C1(C(=O)O)C1CCC2O1` (stereo unspecified), for which the T/C under setting [6] is 94 % of control; the T/C under setting [7] is 90 % of control; the T/C (dose: 240.0 mg/kg/injection, schedule: Q01DX005 (ip), vehicle: saline with Tween-80) was 88 % of control.
`Cc1ccc(C(=O)N/N=C/C(=O)O)cc1`: the T/C is 94 % of control (dose: 12.5 mg/kg/injection, schedule: Q01DX009 (ip), vehicle: Klucel (hydroxypropylcellulose) (HPC)); 95 % of control (dose: 25.0 mg/kg/injection, schedule: Q01DX009 (ip), vehicle: Klucel (hydroxypropylcellulose) (HPC)); 94 % of control (dose: 50.0 mg/kg/injection, schedule: Q01DX009 (ip), vehicle: Klucel (hydroxypropylcellulose) (HPC)); 88 % of control (dose: 100.0 mg/kg/injection, schedule: Q01DX009 (ip), vehicle: Klucel (hydroxypropylcellulose) (HPC)); 88 % of control (dose: 200.0 mg/kg/injection, schedule: Q01DX009 (ip), vehicle: Klucel (hydroxypropylcellulose) (HPC)).

(Values after PubChem BioAssay AID330 (DTP/NCI, 2004).)
